“Also recorded” adds a separate entry of the source.

In experiment [1] the test system is venetoclax sensitive (VS) multiple myeloma (MM) cell lines. Kind of experiment: Hemin/5-ALA supplementation and Ven sensitivity in VS MM cell lines, Annexin V/DAPI flow cytometry. Type of experiment: cell-based. To be noted: 50 μM Hemin/5-ALA pre-treatment 24 hours, then Ven 24 hrs. The method, then: Cell death/viability was assessed by Annexin V/DAPI flow cytometric staining.
To test the necessity for reduced heme synthesis for Ven sensitivity in t(11; 14) MM, Ven treated cells were supplemented with either the heme synthesis precursor 5-ALA or hemin (oxidized heme and active ingredient of clinically approved Panhematin™).
For orientation: A flow cytometer gives signals particle by particle.

Experiment [2] concerns MEK-ERK-mTORC1 signaling. Kind of experiment: MEK-ERK-mTORC1 signaling in whole cell lysates of VS MM treated with hemin. It is filed as cell-based. To be noted: 50 μM hemin and/or 0.05 μM Ven for 18 h. The method, then:
Whole cell lysates of indicated lines were treated with 50 μM hemin and/or 0.05 μM Ven for 18 h. Indicated VS cells were treated with 50 µM hemin and 0.05 μM Ven and RAF, MEK, or ERK-inhibitors. Cell death/viability was evaluated by Annexin V/DAPI flow cytometric staining.

For experiment [3], the system named is venetoclax sensitive acute myeloid leukemia (AML) cell lines. The experiment in a line: Hemin supplementation and venetoclax sensitivity in AML cell lines. It is filed as cell-based.
In experiment [4] the test system is VS t(11; 14) cell lines. The experiment in a line: Rescue of FAC mediated cell death in VS t(11;14) cell lines. Type of experiment: cell-based. The settings on record: in the presence and absence of venetoclax. The method, then: Intracellular iron overload, ROS mediated lipid peroxidation, and loss of GSH/GPX4 mediated antioxidant defenses are all features of ferroptosis. Experiments were performed to determine whether FAC supplementation in VS t(11; 14) MM promotes cell death via ferroptosis. VS t(11; 14) cell lines were treated with a ferrostatin (Fn-1), a synthetic antioxidant that acts via a reductive mechanism to prevent damage to membrane lipids and thereby, inhibits cell death. Inhibiting ferroptosis was able to fully rescue the cell death induced by FAC both in the presence and absence of venetoclax (FIG. 8B). Boc-D-FMK is a caspase inhibitor that inhibits apoptosis.

For experiment [5], the system named is VS t(11; 14) MM cell lines. Kind of experiment: Growth/viability of VS t(11;14) MM cell lines under iron chelation or supplementation (CellTiter-Glo 3D). The settings on record: iron chelation with DFO or supplementation with FAC (500 μM FAC up to 96 h, FIG. 7A). It is filed as cell-based. The method, then: Cells were treated with 500 μM FAC up to 96 h and assessed for viability using CellTiter-Glo® 3D Cell Viability Assay.
Iron is a cofactor for the maintenance of ETC activity. The impact of modulating iron levels either by chelation with deferoxamine (DFO) or supplementation with ferric ammonium citrate (FAC) was assessed in a panel of VS t(11; 14) and VR non t(11; 14) MM cell lines.
(Cellular ATP, detected with luciferase, serves as a proxy for viable cell number.)

For experiment [6], the system named is reactive oxygen species (ROS) in VS t(11; 14) MM. The settings on record: FAC treated VS t(11;14) MM. The text has this: (§1) Free or excess intracellular iron is a potent inducer of reactive oxygen species (ROS) and oxidative stress.
The subject of experiment [7] is iron homeostasis-related protein in VS t(11; 14) cell lines. The method, then:
FIG. 8B show data on the expression of iron homeostasis-related protein in whole cell lysates supplemented with 500 μM FAC for 72 h in indicated cell lines by immunoblotting using actin as a loading control. Indicated cell lines were treated with a ferroptotic inhibitor, ferrostatin (Fn-1).
as §1

Experiment [8] concerns t(11; 14) patient sample. The settings on record: FAC 250 μM and 500 μM, venetoclax 0.001, 0.005 and 0.01 μM, FIG. 7C.

Take `C=CC1=C(C)c2cc3[n-]c(cc4[n-]c(cc5nc(cc1n2)C(C)=C5C=C)c(C)c4CCC(=O)O)c(CCC(=O)O)c3C.[Fe+2]` [hemin, [7,12-diethenyl-3,8,13,17-tetramethyl-21H,23H-porphine-2,18-dipropanoato(2-)-N21,N22,N23,N24] iron]: the “reversal (rescue) of Ven sensitivity” value in experiment [1] is “significantly reversed; also recorded: reverses”. Further, the MEK-ERK-mTORC1 signaling result in experiment [2] is recorded as “restores”. The “reversal of venetoclax sensitivity” value in experiment [3] is “reverses”.

Regarding `CCOC(=O)c1ccc(NC2CCCCC2)c(N)c1` [ferrostatin], in experiment [4], the “rescue of cell death induced by FAC” value is listed as “sufficient to mitigate; also recorded: fully rescue”.

Regarding ferric ammonium citrate [FAC], the “effect on growth/proliferation of VS cell lines” value in experiment [5] is reported as “specifically inhibit the proliferation; also recorded: growth suppressive effect”. Moreover, the “cytosolic ROS levels” value in experiment [6] is on record as “not in cytosolic ROS levels”. The “mitochondrial ROS” value in experiment [6] (48 h) is on record as “significant elevation”. In experiment [7] (FAC treatment), the “cystine-glutamate antiporter SLC7A11 expression” value is “not altered”, the “iron importer TFR1 expression” value was “reduction” and the “iron storage protein ferritin expression” value is given as “increase”. Also, in experiment [7] (all VS t(11;14) cell lines, 500 μM FAC for 72 h), the “glutathione peroxidase 4 (GPX4) protein expression” value is “consistent reduction”. For the same compound, the “sensitivity to venetoclax with iron supplementation” value in experiment [8] is reported as “A similar response”.

As to `COC(=O)CC(NC(=O)OC(C)(C)C)C(=O)CF` [Boc-D-FMK], the “rescue of cell death induced by FAC” value in experiment [4] is on record as “not able to rescue”.

The values above are taken from patent US20260232692A1, “Methods Of Treating Cancer Using BCL-2 Inhibitors With Iron And Heme Supplementation Therapies” (Emory University, priority 2023, published 2026).
